Assay results from paper PMC10447463, “Data-mining unveils structure–property–activity correlation of viral infectivity enhancing self-assembling peptides” (Nature Communications, 2023).
Like-named read-outs stand apart in the source and are kept apart here.

Experiments:
[1] = Turbidity, derived count rate of scattered light; assay type: physicochemical; details: for Count Rate / kcps: derived count rate of scattered light at 633 nm, 173°, from zeta-potential measurement, 0.1 mg/mL in 1 mM KCl after 1 d at 1 mg/mL in PBS, turbidity / microscopic aggregation, mean of triplicate
Summary of the method: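 Samples: 1 mg/mL in PBS pH 7.4 (from DMSO), 1 d at RT, then diluted in 1 mM KCl immediately before measurement. Triplicates, two independent runs averaged.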

[2] = Zeta-potential measurement; assay type: physicochemical
Summary of the method: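 Peptides diluted from DMSO stock into PBS pH 7.4 to 1 mg/mL and aged 1 d at RT, then diluted into 1 mM aqueous KCl. Zeta potential derived from electrophoretic mobility via Smoluchowski; triplicates, averaged over two independent experiments.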

[3] = Turbidity, derived count rate of scattered light; assay type: physicochemical; details: for Count Rate: derived count rate of scattered light (turbidity); for Log10 Count Rate: turbidity, derived count rate of scattered light, data of Figure 2D
[4] = assay type: physicochemical; parameters: key to Fibril / Fibril Formation / TEM 2cat / Fibril: 1 = fibrils present; 0 non-fibrillar structures; details: for Fibril / Fibril Formation: 1 mg/mL, uranyl acetate stain, qualitative
[5] = Log10 of derived count rate of scattered light (turbidity)
[6] = turbidity, Log10 of derived count rate of scattered light, Figure 3A source data
[7] = zeta-potential of peptide, source data of Figure 2C
[8] = zeta-potential of the peptide assemblies, mean, Figure 3A source data
[9] = TEM, 1 = fibrils present, 0 = non-fibrillar
[10] = TEM, 1 = fibrils present, 0 = non-fibrillar structures
[11] = category: fibrils present or non-fibrillar
[12] = log10 of derived count rate of scattered light (turbidity)
[13] = Fig S10 panel D, fibril category by TEM
[14] = zeta potential of peptide assemblies
[15] = FigS12 panel A, fibril category by TEM

Row | Substance | Log10 Count Rate [1, 5] | Count Rate / kcps [1] [kcps] | Log10 Count Rate [1, 6] | Zeta-Pot. [2] | Zeta-Potential / mV [2, 7] [mV] | Zeta-Potential / mV [2, 8] [mV] | Count Rate [3] | Log10 Count Rate [3] | Fibril ([4]; Fig S10 panel E) | Fibril / Fibril Formation ([4]; TEM) | Fibril [4, 9] | Fibril [4, 10] | TEM 2cat [4, 11] | Log10 Count Rate [1, 12] | TEM 2cat [4, 13] | Zeta-Pot. [2, 14] | other results
1 | KFKFQFNM | 2.12 | 132 | 2.12 | 13.9 | 18.4 | 13.9 | 131.8 | 2.12 | 1 | 1 | 1 | 1 | 1 |  |  |  | Log10 Count Rate ([1]; turbidity, log10 of derived count rate of scattered light): 2.12; TEM 2cat ([4]; Fig S10 panel D): 1
2 | KFKFQFW | 2.086 | 122 | 2.086 | 6.49 | 8.995 | 6.49 | 121.9 | 2.086 |  | 1 | 1 | 1 | 1 | 2.086 | 1 |  | 
3 | KFKQFFINMWQ | 3.954 | 8996 | 3.954 | 7.99 | 10.28 | 7.99 | 8996 | 3.954 |  | 1 | 1 | 1 | 1 | 3.954 | 1 |  | 
4 | KIEIQINM | 2.439 | 275 | 2.439 |  | -6.992 | -0.35 | 274.8 | 2.439 |  | 1 | 1 | 1 |  | 2.439 | 1 | -0.35 | TEM 2cat [4, 15]: 1; Fibril ([4]; FigS12 panel B, TEM): 1
5 | KIKIKIKI | 2.191 | 155 | 2.191 |  | 5.997 | 5.46 | 155.1 | 2.191 |  | 0 | 0 | 0 |  | 2.191 | 0 | 5.46 | TEM 2cat [4, 15]: 0; Fibril ([4]; FigS12 panel B, TEM): 0
6 | KIKIKIKIWW | 3.975 | 9436 | 3.975 |  | 15.83 | 15.4 | 9436 | 3.975 | 0 | 0 | 0 | 0 | 0 | 3.975 | 0 | 15.4 | Zeta Count Rate ([1]; peptides with TEM 2cat 0): 9436 kcp
7 | KIKIKIKIWWWW | 4.094 | 12421 | 4.094 |  | 14.82 | 15.2 | 12420.6 | 4.094 |  | 0 | 0 | 0 | 0 | 4.094 | 0 | 15.2 | Zeta Count Rate ([1]; peptides with TEM 2cat 0): 12421 kcp
8 | KIKIKIQI | 3 | 999 | 3 |  | 9.885 | 6.97 | 999.1 | 3 | 1 | 1 | 1 | 1 |  | 3 | 1 | 6.97 | TEM 2cat [4, 15]: 1; Fibril ([4]; FigS12 panel B, TEM): 1
9 | KIKIKIQINMWQ | 3.205 | 1603 | 3.205 | 13.1 | 13 | 13.1 | 1603.1 | 3.205 |  | 1 | 1 | 1 | 1 | 3.205 | 1 |  | 
10 | KIKIQIC | 2.992 | 981 | 2.992 |  | 19.97 | 19.93 | 980.7 | 2.992 | 1 | 1 | 1 | 1 | 1 | 2.992 | 1 | 19.93 | Log10 Count Rate ([1]; logarithm of count rate in kcps): 2.992; Zeta Count Rate ([1]; mean of the 3 replicates): 980.7 kcps; Zeta Count Rate ([1]; replicate 1): 1115.50 kcps; Zeta Count Rate ([1]; replicate 2): 1268.60 kcps; Zeta Count Rate ([1]; replicate 3): 557.90 kcps
11 | KIKIQII | 3.017 | 1039 | 3.017 |  | 6.302 | 5.61 | 1039 | 3.017 |  | 1 | 1 | 1 |  | 3.017 | 1 | 5.61 | TEM 2cat [4, 15]: 1; Fibril ([4]; FigS12 panel B, TEM): 1
12 | KIKIQIII | 1.978 | 95 | 1.978 |  | 19.13 | 19.8 | 94.97 | 1.978 | 1 | 1 | 1 | 1 | 1 | 1.978 | 1 | 19.8 | 
13 | KIKIQIMQWN | 3.343 | 2203 | 3.343 | 9.44 | 8.94 | 9.44 | 2202.7 | 3.343 |  | 1 | 1 | 1 | 1 | 3.343 | 1 |  | 
14 | KIKIQIMWNQ | 3.2757 | 1887 | 3.2757 | 2.96 | 4.42 | 2.96 | 1887 | 3.2757 |  | 1 | 1 | 1 | 1 | 3.2757 | 1 |  | 
